In the supplement of paper PMC10307832:

Experiments:
Assay in all cases: relative viability (nuclei count vs DMSO), 5 days (fraction); higher = more cells survive
[1] = compound: CC1=C(C(=NN1)C)CC2=C(C3=C(S2)N(C(=O)N(C3=O)C)CC(C)C)C(=O)N4C[C@@H](CO4)O + CS(=O)(=O)N1CCN(Cc2cc3nc(-c4cccc5[nH]ncc45)nc(N4CCOCC4)c3s2)CC1 [Pictilisib] (partner 1 µM)
Procedure, shortened: (§1)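 A single step with final 0.05% Triton X-100, 1% formaldehyde and 1 ug/ml Hoechst fixed the cells and stained nuclei 5 days after treatment. Lung cancer cell lines in 1536-well plates had been treated by pin tool the day after seeding with one drug alone or a fixed anchor-drug dose plus five library-drug doses (not always all listed) in √10 steps, and nuclei were counted on 4× images. Relative viability is the ratio of nuclei in treated wells to nuclei in vehicle wells, taken as the median of duplicate plates.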

IDH-C35 + Foretinib = compound: Cc1ccccc1C(C(=O)NC1CCCCC1)N(C(=O)Cn1ccnc1C)c1cccc(F)c1 [IDH-C35] + COc1cc2c(Oc3ccc(NC(=O)C4(C(=O)Nc5ccc(F)cc5)CC4)cc3F)ccnc2cc1OCCCN1CCOCC1 [Foretinib] (partner 0.25 µM)
Procedure, shortened: as §1

IDH-C35 + Phenformin = compound: Cc1ccccc1C(C(=O)NC1CCCCC1)N(C(=O)Cn1ccnc1C)c1cccc(F)c1 [IDH-C35] + N=C(N)NC(=N)NCCc1ccccc1 [Phenformin] (partner 250 µM)
Procedure, shortened: as §1

IDH-C35 + Pemetrexed = compound: Cc1ccccc1C(C(=O)NC1CCCCC1)N(C(=O)Cn1ccnc1C)c1cccc(F)c1 [IDH-C35] + Nc1nc2[nH]cc(CCc3ccc(C(=O)N[C@@H](CCC(=O)O)C(=O)O)cc3)c2c(=O)[nH]1 [Pemetrexed] (partner 0.2 µM)
Procedure, shortened: as §1

UMC-11
relative viability ([1]; first compound 0.0025 µM): 0.917 | relative viability ([1]; first compound 0.007906 µM): 0.673 | relative viability ([1]; first compound 0.025 µM): 0.785 | relative viability ([1]; first compound 0.07906 µM): 0.921 | relative viability ([1]; first compound 0.25 µM): 0.907 | relative viability (IDH-C35 + Foretinib; first compound 0.08 µM): 0.889 | relative viability (IDH-C35 + Foretinib; first compound 0.253 µM): 1.07 | relative viability (IDH-C35 + Foretinib; first compound 0.8 µM): 0.997 | relative viability (IDH-C35 + Foretinib; first compound 2.53 µM): 1.06 | relative viability (IDH-C35 + Foretinib; first compound 8 µM): 1.11 | relative viability (IDH-C35 + Phenformin; first compound 0.08 µM): 0.317 | relative viability (IDH-C35 + Phenformin; first compound 0.253 µM): 0.337 | relative viability (IDH-C35 + Phenformin; first compound 0.8 µM): 0.33 | relative viability (IDH-C35 + Phenformin; first compound 2.53 µM): 0.313 | relative viability (IDH-C35 + Phenformin; first compound 8 µM): 0.291 | relative viability (IDH-C35 + Pemetrexed; first compound 0.08 µM): 0.811 | relative viability (IDH-C35 + Pemetrexed; first compound 0.253 µM): 0.915 | relative viability (IDH-C35 + Pemetrexed; first compound 0.8 µM): 0.804 | relative viability (IDH-C35 + Pemetrexed; first compound 2.53 µM): 0.853 | relative viability (IDH-C35 + Pemetrexed; first compound 8 µM): 0.88
